Data as given in ChEMBL document CHEMBL4325918, “Allosteric CB1 Receptor Modulators for the Treatment of CB1 Related Diseases and Conditions” (ACS Med Chem Lett, 2018).
The source made the active and inactive calls. The rule behind the calls is not given here.

Legend:
Cannabinoid receptor 1 [1] = biological target: T1, Cannabinoid receptor 1 (Homo sapiens, UniProt P21554); experiment: Agonist activity at CB1 receptor (unknown origin) relative to CP55940
Cannabinoid receptor 1 [2] = biological target: T1, Cannabinoid receptor 1; experiment: Allosteric modulation of CB1 receptor (unknown origin) assessed as inhibition of CP55940-induced [35S]GTPgammaS binding; assay type: functional
[3] = Half life in Sprague-Dawley rat; assay type: ADME; details: in vivo
Rattus norvegicus = experiment: Reduction in cocaine-induced reinstatement of cocaine seeking behavior in Sprague-Dawley rat at 10 mg/kg; assay type: functional, organism-based

T1 sequence (P21554 whole entry): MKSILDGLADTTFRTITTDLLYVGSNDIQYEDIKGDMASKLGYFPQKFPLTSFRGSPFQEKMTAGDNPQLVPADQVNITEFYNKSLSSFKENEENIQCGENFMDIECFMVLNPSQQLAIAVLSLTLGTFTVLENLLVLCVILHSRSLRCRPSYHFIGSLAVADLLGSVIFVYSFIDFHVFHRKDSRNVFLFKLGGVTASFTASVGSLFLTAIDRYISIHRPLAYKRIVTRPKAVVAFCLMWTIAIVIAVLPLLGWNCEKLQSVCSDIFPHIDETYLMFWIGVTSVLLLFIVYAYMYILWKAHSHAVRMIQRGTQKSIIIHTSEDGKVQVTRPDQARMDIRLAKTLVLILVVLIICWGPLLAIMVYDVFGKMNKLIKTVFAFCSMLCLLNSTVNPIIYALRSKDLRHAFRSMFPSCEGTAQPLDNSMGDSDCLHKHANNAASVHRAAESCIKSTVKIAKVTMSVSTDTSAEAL

Structure (SMILES)	Emax (Cannabinoid receptor 1 [1]) [%]	IC50 (Cannabinoid receptor 1 [2]) [nM]	half-life [3] [h]	Activity (Rattus norvegicus)
O=C(Nc1ccc(Cl)cc1)Nc1cccc(-c2ccsc2)c1	28.9	164	–	–
O=C(Nc1ccc(Cl)cc1)Nc1cccc(-c2ccc(F)cc2)c1	–	151	5	Active
O=C(Nc1ccc(Cl)cc1)Nc1cccc(N2CCC2)c1	–	1380	–	–
O=C(Nc1ccc(Cl)cc1)Nc1cccc(-c2cccc([N+](=O)[O-])c2)c1	–	452	–	–
O=C(Nc1ccc(Cl)cc1)Nc1cccc(-c2ccoc2)c1	–	440	–	–
O=C(Nc1ccc(Cl)cc1)Nc1cccc(-c2cc(Cl)cc(Cl)c2)c1	–	299	–	–
O=C(Nc1ccc(Cl)cc1)Nc1cccc(-c2ccccn2)c1	–	2650	–	–
O=C(Nc1ccc(Cl)cc1)Nc1cccc(-c2ccccc2)c1	–	437	–	–
O=C(Nc1ccc(Cl)cc1)Nc1cccc(-c2ccc(F)cc2F)c1	–	353	–	–
Cc1cc(-c2cccc(NC(=O)Nc3ccc(Cl)cc3)c2)cs1	3.7	776	–	–
Cc1ccc(-c2cccc(NC(=O)Nc3ccc(Cl)cc3)c2)s1	4.6	372	–	–
